From patent US20100034903A1, “SHINYLEAF YELLOWHORN EXTRACT, METHODS FOR EXTRACTION AND USES THEREOF” (priority 2006, published 2010) come the findings set out here.

Structures are written as SMILES.

For one assay, the system named is water-load mice. Nature of the assay: Urination frequency of water-load mice. The class given is in vivo. The settings on record: imipramine 0.01 g/kg*d × 10, gavage. An excerpt: The experimental animal strains used herein are the SPF KM mice and Wistar rats. Each rat or mouse receives gavage drug administration. Shinyleaf yellowhorn extract is the refined extract from Refining Example IV, in the form of capsules. The control drug is imipramine, which has a strong anti-depression action and a weak atropine-like action, and is often used for treatment of the depression and children enuresis. The experimental method is calculating the urination frequency of mice based on the colorable reaction taking place when the dried potassium iodide and starch are mixed with the urine.

Assay [1] concerns excised smooth muscle of bladder of rats. Nature of the assay: Relaxation of excised smooth muscle of bladder of rats. The class given is cell-based. The note with it: rat bladder smooth muscle strips; 12 experiments. An excerpt: The experimental animal strain used herein is the SPF Wistar rats. The experiment process is as follows: the rat bladder is surgically excised to prepare the strips of smooth muscle; place the smooth muscle in the thermostat nutrient solution, and then added with Shinyleaf yellowhorn extract (the refined extract from Refining Example IV, in the form of capsules) and the imipramine respectively, under the oxygen supply conditions, to observe the changes in smooth muscle.

The test system of the next assay is dementia rat model. Put plainly: Avoidance conditioned reflex of the dementia rat model with destructed cholinergic neuron and Meynert basal ganglia. The class given is in vivo. The note with it: 0.2 g/kg, gavage. From the text:
The animal model of senile dementia is established pursuant to the method disclosed in “Experimental Alzheimer's Disease Animal Model with Destructed Cholinergic Neuron” (Pharmacological Experimental Methodology, Third Edition, […]). The kainic acid is a receptor agonist for the central exciting neurotransmitter glutamate, which has been widely used as a tool drug to establish the neurotoxicity model by the international community. Administration mode: gavage administration. The Piracetam-NEGPF [piracetam, […] acetamide, amide pyrrole ring (ketone)] is a brain metabolism nootropics that can protect and repair cranial nerve cells, promote the transformation of ADP into ATP in the brain and the synthesis of acetylcholine and prevent against the brain function injury caused by the physical and chemical factors, and is used in clinic for the treatment of the brain function disorder due to aging, cerebral vascular accident, traumatic brain injury, and CO poisoning.

Assay [2] deals with mouse sleeping model by sodium pentobarbital. Nature of the assay: Sleeping hours of the mouse (sodium pentobarbital sleep model). The class given is in vivo. The settings on record: mice, 0.02 g/kg gavage one hour prior to sodium pentobarbital. From the text: Establish the animal model of sleeping of the mouse by an intraperitoneal injection of sodium pentobarbital. Administer drug by gavage administration one hour prior to the injection, so as to observe the recovery time for the righting reflex of the mouse. Administration mode: gavage administration. The telucidone (meclofenoxate, or centrofenoxine) has an exciting action on central nerve and commonly used for the clinical treatment of traumatic unconscious disturbance and children enuresis.

Assay [3] relates to external bladder sphincter of the rabbit. Nature of the assay: Bioelectricity of the extracellular electrode of the external bladder sphincter of the rabbit. The class given is in vivo. The note with it: 0.4 mg/kg, gavage. From the text:
Experimental method: surgically implant indwelling electrode and record the changes of the external bladder sphincter of the rabbit with a physiological recorder. Administration mode: gavage administration. The adrenomimetic drug Midodrine is a selective α1 adrenoceptor agonist, commonly used for treating of stress incontinence clinically.

Turning to `CN(C)CCCN1c2ccccc2CCc2ccccc21` [Imipramine, imipramine], the Urination frequency in the assay on water-load mice (0.5 h) is given as 0.9 ± 0.7 times/each; with water-load mice (1.0 h), 2.9 ± 1.3 times/each; in the assay with water-load mice (2.0 h), 2.6 ± 1.5 times/each; in the assay on water-load mice (3.0 h), 1.3 ± 0.8 times/each. Further, the “Concentration of solution as smooth muscle shows complete relaxation” value in assay [1] worked out at 0.15 mg/mL.
With `NC(=O)CN1CCCC1=O` [Piracetam-NEGPF, piracetam], the Latency is 4.6 ± 0.7 s in the assay on dementia rat model (72 h post stopping of training), 2.6 ± 0.6 s in the assay with dementia rat model (The fifth day), 7.1 ± 3.3 s with dementia rat model (The first day) and 4.4 ± 1.0 s in the assay with dementia rat model (The third day). For the same molecule, the Positive rate came out at 58.2 ± 7.4 % in the assay with dementia rat model (72 h post stopping of training), 71.05 ± 8.2 % with dementia rat model (The fifth day), 30.5 ± 12.7% in the assay on dementia rat model (The first day) and 57.6 ± 8.0 % in the assay with dementia rat model (The third day).
`CN(C)CCOC(=O)COc1ccc(Cl)cc1` [Telucidone, meclofenoxate]: the Hour of sleep in assay [2] came out at 61.2 ± 10.7 min.
In assay [3], `COc1ccc(OC)c(C(O)CNC(=O)CN)c1` (centres unmarked) [Midodrine] displayed a Frequency of 35.4 ± 11.6 times/min, a Time duration of 18.7 ± 10.3 min and a Wave amplitude of 14.9 ± 6.7 mv.
